Values of other authors, collected in patent US20220288212A1, “FULLERENE P[…] AND METHODS” (Sinapu LLC, priority 2021, published 2022).

Columns and labels:
[1] = room temperature
[2] = minimum of from 2.5 to 3 grams of EGCG ingested per day

O=C(O[C@@H]1Cc2c(O)cc(O)cc2O[C@@H]1c1cc(O)c(O)c(O)c1)c1cc(O)c(O)c(O)c1 [EGCG, epigallocatechin gallate]
maximum solubility in water [1]: 92 grams per liter
blood serum concentration [2]: 100 to 1000 nM
